The results in this text go back to ChEMBL document CHEMBL1135129, “N-Tetrahydrofuroyl-(L)-phenylalanine derivatives as potent VLA-4 antagonists” (Bioorg Med Chem Lett, 2002).

The target of data set [1] is T1, Integrin alpha-4/beta-1 (Homo sapiens, UniProt P05556+P13612). The experiment in a line: Inhibition of I-VCAM-Ig binding to Very late antigen 4 (VLA-4). Format: protein-complex assay.
Data set [2] can be described thus: Oral bioavailability in rat (Sprague-Dawley) (dose 1 mg/kg i.v.). To be noted: in vivo. In kind it is ADME, organism-based.
Data set [3] in a line: Oral bioavailability in rat (Sprague-Dawley) (dose 2 mg/kg). In kind it is ADME, organism-based. As to conditions: in vivo.
Data set [4] addresses T1, Integrin alpha-4/beta-1. The experiment in a line: Inhibition of very late antigen-4 alpha4-beta1 (VLA-4), I-VCAM-Ig as radioligand. In kind it is protein-complex assay.
The nature of data set [5]: Oral bioavailability in rat (Sprague-Dawley). As to conditions: in vivo. Format: ADME, organism-based.

T1 sequence (P05556 whole entry): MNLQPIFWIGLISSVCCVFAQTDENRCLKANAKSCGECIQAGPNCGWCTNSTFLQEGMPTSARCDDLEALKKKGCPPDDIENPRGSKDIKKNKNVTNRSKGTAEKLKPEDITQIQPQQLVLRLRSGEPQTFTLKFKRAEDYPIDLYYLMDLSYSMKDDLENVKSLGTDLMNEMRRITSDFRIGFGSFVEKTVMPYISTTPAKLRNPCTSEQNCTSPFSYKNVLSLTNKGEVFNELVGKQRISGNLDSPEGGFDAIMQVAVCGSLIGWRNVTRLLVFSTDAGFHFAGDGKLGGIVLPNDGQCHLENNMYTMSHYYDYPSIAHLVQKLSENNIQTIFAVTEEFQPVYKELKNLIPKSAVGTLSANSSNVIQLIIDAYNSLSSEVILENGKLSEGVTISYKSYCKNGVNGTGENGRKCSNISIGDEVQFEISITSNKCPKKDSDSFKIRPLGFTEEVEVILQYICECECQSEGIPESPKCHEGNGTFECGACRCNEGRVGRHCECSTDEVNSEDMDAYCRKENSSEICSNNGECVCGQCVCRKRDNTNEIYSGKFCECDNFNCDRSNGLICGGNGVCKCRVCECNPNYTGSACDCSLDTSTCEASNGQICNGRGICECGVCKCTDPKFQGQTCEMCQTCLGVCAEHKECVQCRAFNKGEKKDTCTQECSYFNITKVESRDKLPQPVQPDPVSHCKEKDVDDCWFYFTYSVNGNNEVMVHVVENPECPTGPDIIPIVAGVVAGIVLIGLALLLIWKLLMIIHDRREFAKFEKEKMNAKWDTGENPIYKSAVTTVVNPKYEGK
T1 sequence (P13612 whole entry): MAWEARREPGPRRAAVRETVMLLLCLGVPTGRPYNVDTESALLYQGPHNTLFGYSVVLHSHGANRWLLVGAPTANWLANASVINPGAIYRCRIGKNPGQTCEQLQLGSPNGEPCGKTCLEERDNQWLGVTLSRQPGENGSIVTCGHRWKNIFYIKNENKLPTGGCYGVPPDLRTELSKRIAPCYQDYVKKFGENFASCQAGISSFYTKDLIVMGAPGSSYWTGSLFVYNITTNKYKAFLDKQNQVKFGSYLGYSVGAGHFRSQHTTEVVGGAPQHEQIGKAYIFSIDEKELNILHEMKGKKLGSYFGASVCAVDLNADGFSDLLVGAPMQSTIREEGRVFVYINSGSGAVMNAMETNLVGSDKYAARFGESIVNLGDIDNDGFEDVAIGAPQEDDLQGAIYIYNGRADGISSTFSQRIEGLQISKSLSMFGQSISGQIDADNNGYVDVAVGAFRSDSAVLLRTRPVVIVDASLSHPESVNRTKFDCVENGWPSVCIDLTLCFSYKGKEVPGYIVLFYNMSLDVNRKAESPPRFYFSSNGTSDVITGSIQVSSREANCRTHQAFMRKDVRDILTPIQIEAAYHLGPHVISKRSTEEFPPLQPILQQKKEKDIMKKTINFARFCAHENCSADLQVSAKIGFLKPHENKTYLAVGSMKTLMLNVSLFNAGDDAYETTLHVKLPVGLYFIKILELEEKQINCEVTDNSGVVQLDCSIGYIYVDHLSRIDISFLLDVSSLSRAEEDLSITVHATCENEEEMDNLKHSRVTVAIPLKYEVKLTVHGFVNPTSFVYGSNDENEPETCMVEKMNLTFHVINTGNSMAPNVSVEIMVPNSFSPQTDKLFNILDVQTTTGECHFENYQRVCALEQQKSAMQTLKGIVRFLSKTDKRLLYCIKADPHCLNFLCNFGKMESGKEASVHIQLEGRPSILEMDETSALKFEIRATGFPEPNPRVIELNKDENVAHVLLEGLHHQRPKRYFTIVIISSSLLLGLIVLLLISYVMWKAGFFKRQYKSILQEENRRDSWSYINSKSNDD

Take `COc1ccccc1-c1ccc(C[C@@H](NC(=O)[C@@]2(C)CCCO2)C(=O)O)cc1`: the IC50 at Integrin alpha-4/beta-1 [1] is 2.7 nM. Moreover, the bioavailability in data set [2] and in data set [3] was 57% throughout.
At Integrin alpha-4/beta-1 [1], `COc1ccccc1-c1ccc(C[C@H](NC(=O)[C@@]2(C)CCCO2)C(=O)O)cc1` yielded a half-maximal inhibitory concentration (IC50) of 13.7 nM.
As to `C[C@]1(C(=O)N[C@@H](Cc2ccc(-c3c(OC4CC4)cccc3OC3CC3)cc2)C(=O)O)CCCO1`, on Integrin alpha-4/beta-1 [4], the IC50 stood at 2.4 nM.
For the compound `C[C@]1(C(=O)N[C@@H](Cc2ccc(-c3ccccc3OC3CC3)cc2)C(=O)O)CCCO1`, the bioavailability in data set [2] and in data set [3] was 76% each time. The compound also had an IC50 on Integrin alpha-4/beta-1 [4] of 3.9 nM.
On to `COc1ccccc1-c1ccc(C[C@H](NC(=O)C2CCCC2)C(=O)O)cc1`, for which the IC50 on Integrin alpha-4/beta-1 [4] is 63 nM.
The same measure, in the same setting: as for `COc1ccccc1-c1ccc(C[C@H](NC(=O)[C@@H]2CCCN2)C(=O)O)cc1`, the figure is 11 nM.
For the compound `C[C@]1(C(=O)N[C@@H](Cc2ccc(-n3ccccc3=O)cc2)C(=O)O)CCCO1`, the bioavailability in data set [2] and in data set [3] was 27% in each case. On Integrin alpha-4/beta-1 [4], this compound showed an IC50 of 12.9 nM.
Turning to `C[C@]1(C(=O)N[C@@H](Cc2ccc(NC(=O)c3c(Cl)cncc3Cl)cc2)C(=O)O)CCCO1`, the IC50 at Integrin alpha-4/beta-1 [4] worked out at 0.2 nM.
On Integrin alpha-4/beta-1 [4], `COc1ccccc1-c1ccc(C[C@H](NC(=O)N2CCCN2S(=O)(=O)c2cc(Cl)cc(Cl)c2)C(=O)O)cc1` showed an IC50 of 0.88 nM.
`C[C@]1(C(=O)N[C@@H](Cc2ccc(-n3ccn(Cc4ccccc4)c3=O)cc2)C(=O)O)CCCO1`: the IC50 at Integrin alpha-4/beta-1 [4] came to 4.1 nM.
As for `COc1cccc(OC)c1-c1ccc(C[C@H](NC(=O)[C@@]2(C)CCCO2)C(=O)O)cc1`, the IC50 on Integrin alpha-4/beta-1 [1] was 0.3 nM. For the same compound, the bioavailability in data set [2] and in data set [3] was 42% throughout.
At Integrin alpha-4/beta-1 [4], `COc1ccccc1-c1ccc(C[C@H](NC(=O)N2CCC=N2)C(=O)O)cc1` yielded an IC50 of 19.3 nM.
On to `COc1ccccc1-c1ccc(C[C@H](NC(=O)C2(C)CCCO2)C(=O)O)cc1` (stereo partly specified), for which the IC50 at Integrin alpha-4/beta-1 [1] was 3.9 nM. This compound came in with a bioavailability in data set [5] of 72%.
Compound `C[C@]1(C(=O)N[C@@H](Cc2ccc(-c3ccccc3C#N)cc2)C(=O)O)CCCO1` returned an IC50 at Integrin alpha-4/beta-1 [4] of 11 nM.
The same measure, in the same setting: as for `COc1ccccc1-c1ccc(C[C@H](NC(=O)C2CCCO2)C(=O)O)cc1` (stereo partly specified), the figure is 1.7 nM.
On Integrin alpha-4/beta-1 [4], `COc1ccccc1-c1ccc(C[C@H](NC(=O)C2(C)CCCS2(=O)=O)C(=O)O)cc1` (stereo partly specified) registered an IC50 of 1.3 nM. The same compound displayed a bioavailability in data set [5] of 6%.
`COc1ccccc1-c1ccc(C[C@H](NC(=O)C2CCCS2(=O)=O)C(=O)O)cc1` (stereo partly specified) showed an IC50 at Integrin alpha-4/beta-1 [4] of 2.1 nM.
On Integrin alpha-4/beta-1 [4], `COc1ccccc1-c1ccc(C[C@H](NC(=O)C2CCCCO2)C(=O)O)cc1` (stereo partly specified) gave an IC50 of 4.9 nM.
On the same count and under the same terms, as for `COc1ccccc1-c1ccc(C[C@H](NC(=O)N2CCCC2)C(=O)O)cc1`, the figure is 17 nM.
Regarding `COc1ccccc1-c1ccc(C[C@H](NC(=O)C2CCOC2)C(=O)O)cc1` (stereo partly specified), the IC50 on Integrin alpha-4/beta-1 [4] amounted to 36 nM.
On to `COc1ccccc1-c1ccc(C[C@H](NC(=O)C2CCC(=O)N2)C(=O)O)cc1` (stereo partly specified), for which the IC50 on Integrin alpha-4/beta-1 [4] amounted to 2.8 nM.
